Test results: US20240316014A1, “METHOD FOR TREATING DEMYELINATING CONDITIONS” (ACADEMIA SINICA, priority 2023, published 2024)
Read-outs that look alike come from different tables or passages of the source.

What was measured:
[1] = test system: cuprizone-induced demyelination; conditions: cited from earlier work
[2] = test system: human primary fibroblasts (CRL2097); assay: Morphology screening for conversion of fibroblasts into oligodendrocyte-like cells; format: cell-based; conditions: for morphological changes in fibroblasts (dendritic and dome-shaped): human fibroblasts CRL2097, phase-contrast, vs solvent control (FIG. 1A)
Procedure: The human normal foreskin skin fibroblast primary cells (CRL-2097) were obtained from the ATCC. CRL-2097 cells were cultured at 37° C. with 5% CO2 in high glucose Dulbecco's Modified Eagle's Medium (HG-DMEM) (Life Technologies) supplemented with 10% fetal bovine serum (FBS) (Hyclone). Cell viability was determined by trypan blue staining. All of the cultures were free of mycoplasma. This study was approved by the Academia Sinica ethics committee (IRB number: AS-IRB-BM-17008, AS-IRB-BM-20038). Cells (1×10^4 per well) were plated on 24-well plates. Cells were cultured in HG-DMEM (Life Technologies) supplemented with 10% fetal bovine serum (FBS) (Hyclone) for 2 days. Then the medium was replaced with DMEM/F12 (Gibco) with 1% N2 supplement, 1% B27 supplement (all from Life Technologies), 20 ng/ml Platelet-Derived Growth Factor AA (PDGF-AA), 20 ng/ml Epidermal Growth Factor (EGF), 20 ng/mL Basic Fibroblast Growth Factor (bFGF), 20 ng/ml Neurotrophin-3 (NT3) (all from Peprotech). Then the cells were treated with 3 mM valproic acid (Tocris) for 2 days, 10 μM Y27632 (LC Laboratories), 10 μM SU9516 (R&D Systems), and 10 μM Forskolin (FSK) (Tocris) for 1 day. The reagent is listed in supplementary Table S1 and Table S2. To find out which chemicals could convert fibroblasts into oligodendrocyte-like cells, we screened chemically-treated cells based on morphological changes that included the formation of a dendritic morphology of neural lineage cells and the dome-shaped morphology of the cell bodies of oligodendrocytes. In a preliminary screen, two chemicals, Y27632 and SU9516, were identified that may be involved in triggering the generation of oligodendrocyte-like cells from human primary fibroblasts (CRL2097). […] To characterize the induced oligodendrocyte-like cells, we performed immunofluorescence staining to analyze the expression of oligodendrocyte-specific markers. […] Next, to optimize the two-chemical cocktail, we performed an additional high-throughput screen using a chemical library of over 1,500 molecules purchased from Selleckchem®. […]

[3] = test system: human primary fibroblasts (CRL2097); assay: Immunofluorescence staining of oligodendrocyte-specific markers in chemically treated fibroblasts; format: cell-based; conditions: compared to the solvent control group (FIG. 1B)
Procedure: Cells (1×10^4 per well) were plated on 24-well plates. Cells were cultured in HG-DMEM (Life Technologies) supplemented with 10% fetal bovine serum (FBS) (Hyclone) for 2 days. Then the medium was replaced with DMEM/F12 (Gibco) with 1% N2 supplement, 1% B27 supplement (all from Life Technologies), 20 ng/ml Platelet-Derived Growth Factor AA (PDGF-AA), 20 ng/ml Epidermal Growth Factor (EGF), 20 ng/mL Basic Fibroblast Growth Factor (bFGF), 20 ng/ml Neurotrophin-3 (NT3) (all from Peprotech). Then the cells were treated with 3 mM valproic acid (Tocris) for 2 days, 10 μM Y27632 (LC Laboratories), 10 μM SU9516 (R&D Systems), and 10 μM Forskolin (FSK) (Tocris) for 1 day. The reagent is listed in supplementary Table S1 and Table S2. Cells were fixed with 4% formaldehyde for 15 minutes at room temperature, and washed once with 1×Phosphate Buffered Saline (PBS). Cells were permeabilized with 0.3% Triton X-100 for 5 minutes, washed twice with 1×PBS, and blocked in 2% Bovine Serum Albumin (BSA) in PBS for 30 minutes. […] Fluorescence was analyzed using a fluorescence microscope (Axiovert 200 M, Zeiss).

| SMILES | morphological changes in fibroblasts (dendritic and dome-shaped) [2] | expression of oligodendrocyte-specific marker 4 (O4) by immunofluorescence [3] | also measured |
| --- | --- | --- | --- |
| CNC(=O)c1cc(Oc2ccc3nc(N[C@@H]4CCCC[C@H]4O)sc3c2)ccn1 [BLZ945] | – | – | remyelination ([1]; 5-week cuprizone-induced model, ref [34]): enhances remyelination |
| CC(C)(C)[C@]1(O)CC2OC(=O)CC23C(=O)OC2OC(=O)[C@H](O)C231 (some centres unmarked) [Bilobalide] | – | – | remyelination ([1]; cuprizone-induced 6-week model, ref [36]): promote remyelination |
| COc1ccc2c(c1)c(CC(=O)O)c(C)n2C(=O)c1ccc(Cl)cc1 [Indomethacin] | – | – | remyelination ([1]; 10-week cuprizone-induced demyelination model, ref [33]): promote remyelination |
| COc1ccc2c(c1)/C(=C/c1cnc[nH]1)C(=O)N2 [SU9516, (Z)-3-((1H-imidazol-5-yl)methylene)-5-methoxyindolin-2-one] | induced morphological changes | higher 04 expression | – |
| CCCC(CCC)C(=O)O [VPA, valproic acid] | – | – | conversion efficiency, VPA pretreatment vs co-treatment with YSF ([2]; VPA 2 days then YSF 1 day, or VPA co-treated with YSF 1 day (FIG. 1D)): only pretreatment could improve the conversion efficiency |
| C[C@@H](N)[C@H]1CC[C@H](C(=O)Nc2ccncc2)CC1 [Y27632, Trans-4-[(1R)-1-Aminoethyl]-N-(4-pyridinyl)cyclohexanecarboxamide] | induced morphological changes | higher 04 expression | – |
